How the values were obtained:
[1] = system: MOLP-8 cells; assay: Cell proliferation assay (alamarBlue), MOLP-8; format: cell-based; conditions: Homo sapiens; MOLP-8 (multiple myeloma), 120 hours
Description: In accordance with the invention, the ability of the substances to inhibit cell proliferation was determined. Cell viability was determined by means of the alamarBlue® reagent (Invitrogen) in a Victor X3 Multilabel Reader (Perkin Elmer). The excitation wavelength was 530 nm and the emission wavelength […].
The MOLP-8 cells (DSMZ, ACC 569) were sown at a concentration of 4000 cells/well in 100 μl of growth medium (RPMI1640, 20% FCS) on 96-well microtitre plates.
After overnight incubation at 37° C., the fluorescence values were determined (CI values). Then the plates were treated with various substance dilutions (1E-5 M, 3E-6 M, 1E-6 M, 3E-7 M, 1E-7 M, 3E-8 M, 1E-8 M) and incubated at 37° C. over 96 hours (MOLM-13, B16F10, CHL-1 cells) or 120 hours (MOLP-8 cells). Subsequently, the fluorescence values were determined (CO values). For the data analysis, the CI values were subtracted from the CO values and the results were compared between cells which had been treated with various dilutions of the substance or only with buffer solution. The IC50 values (substance concentration needed for 50% inhibition of cell proliferation) were calculated therefrom.

[2] = biological target: T1, BRD4 bromo domain 2 [BRD4(2)] (Homo sapiens, UniProt O60885); assay: BRD4/acetylated peptide H4 binding assay (TR-FRET), BRD4 bromo domain 2; conditions: inhibition of BRD4(2)/Ac-H4 peptide interaction
T1 construct: N-terminally His6-tagged BRD4(2) (amino acids 357-445); made in house; host or cells: E. coli
How it was run: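 Binding of His6-BRD4(2) (aa 357-445, 100 nM final) to biotinylated tetra-acetylated H4 peptide read by TR-FRET (665/620 nm). Compound preincubated 10 min at 22 °C, then 1 h at 22 °C plus ≥3 h at 4 °C. Eleven concentrations (0.1 nM–20 μM) in duplicate; IC50 by 4-parameter fit.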

IC50 [2] [nM]	SMILES	IC50 [1] [nM]
135	CNS(=O)(=O)c1cccc(Nc2ccc3c(n2)N(C2CCOCC2)[C@H](C)C(=O)N3C)c1 [Example 39, 3-{[(3R)-1,3-dimethyl-2-oxo-4-(tetrahydro-2H-pyran-4-yl)-1,2,3,4-tetrahydropyrido[2,3-b]pyrazin-6-yl]amino}-N-methylbenzenesulphon-amide]	91
52	COc1ccc(S(=O)(=O)N2CCN(C)CC2)cc1Nc1ccc2c(n1)N(C1CCOCC1)[C@H](C)C(=O)N2C [Example 40, (3R)-6-({2-methoxy-5-[(4-methylpiperazin-1-yl)sulphonyl]phenyl}-amino)-1,3-dimethyl-4-(tetrahydro-2H-pyran-4-yl)-3,4-dihydropyrido[2,3-b]pyrazin-2(1H)-one]	73
43	C[C@@H]1C(=O)N(C)c2ccc(Nc3cccc(S(=O)(=O)N(C)C)c3)nc2N1C1CCN(C)CC1 [Example 41, 3-{[(3R)-1,3-dimethyl-4-(1-methylpiperidin-4-yl)-2-oxo-1,2,3,4-tetrahydropyrido[2,3-b]pyrazin-6-yl]amino}-N,N-dimethylbenzene-sulphonamide]	17
96	CC(C)N1c2nc(Nc3cccc(S(=O)(=O)N4CCN(C)CC4)c3)ccc2N(C)C(=O)[C@H]1C [Example 43, (3R)-4-isopropyl-1,3-dimethyl-6-({3-[(4-methylpiperazin-1-yl)sulphonyl]phenyl}-amino)-3,4-dihydropyrido-[2,3-b]pyrazin-2(1H)-one]	144
88	C[C@@H]1C(=O)N(C)c2ccc(Nc3cccc(S(=O)(=O)NCC4CCN(C)CC4)c3)nc2N1C1CCOCC1 [Example 44, 3-{[(3R)-1,3-dimethyl-2-oxo-4-(tetrahydro-2H-pyran-4-yl)-1,2,3,4-tetrahydropyrido[2,3-b]pyrazin-6-yl]amino}-N-[(1-methylpiperidin-4-yl)methyl]benzene-sulphonamide]	335
148	CC(C)CN1c2nc(Nc3cccc(S(=O)(=O)N[C@H]4CC[C@H](N5CCN(CC6CC6)CC5)CC4)c3)ccc2N(C)C(=O)[C@H]1C [Example 45, N-{trans-4-[4-(cyclopropylmethyl)-piperazin-1-yl]cyclohexyl}-3-{[(3R)-4-isobulyl-1,3-dimethyl-2-oxo-1,2,3,4-tetrahydropyrido[2,3-b]pyrazin-6-yl]amino}-benzenesulphonamide]	67
69	COc1ccc(S(=O)(=O)N2CCN(C)CC2)cc1Nc1ccc2c(n1)N(C1CCN(C)CC1)[C@H](C)C(=O)N2C [Example 46, (3R)-6-({2-methoxy-5-[(4-methylpiperazin-1-yl)sulphonyl]phenyl}-amino)-1,3-dimethyl-4-(1-methylpiperidin-4-yl)-3,4-dihydropyrido[2,3-b]pyrazin-2(1H)-one]	33
59	C[C@@H]1C(=O)N(C)c2ccc(Nc3cccc(S(=O)(=O)N4CCOCC4)c3)nc2N1C1CCN(C)CC1 [Example 47, (3R)-1,3-dimethyl-4-(1-methylpiperidin-4-yl)-6-{[3-(morpholin-4-ylsulphonyl)phenyl]-amino}-3-4-dihydropyrido-[2,3-b]pyrazin-2(1H)-one]	25
101	C[C@@H]1C(=O)N(C)c2ccc(Nc3cccc(S(=O)(=O)NC4CCN(C)CC4)c3)nc2N1C1CCCCCC1 [Example 48, 3-{[(3R)-4-cycloheptyl-1,3-dimethyl-2-oxo-1,2,3,4-tetrahydropyrido-[2,3-b]pyrazin-6-yl]amino}-N-(1-methylpiperidin-4-yl)benzenesulphonamide]	197
121	C[C@@H]1C(=O)N(C)c2ccc(Nc3cccc(S(=O)(=O)N4CCN(C)CC4)c3)nc2N1C1CCN(C)CC1 [Example 50, (3R)-1,3-dimethyl-6-({3-[(4-methylpiperazin-1-yl)sulphonyl]phenyl}-amino)-4-(1-methyl-piperidin-4-yl)-3,4-dihydropyrido[2,3-b]pyrazin-2(1H)-one]	140
